According to patent US10349656B2, “Difluoromethyl-nicotinic-indanyl carboxamides” (BAYER CROPSCIENCE AKTIENGESELLSCHAFT, priority 2014, dated 2019):

How the values were obtained:
[1] = Log P by HPLC on reversed phase columns (EEC directive 79/831 Annex V.A8), acidic range; assay type: physicochemical; conditions: for chromatographic logP: LC-UV, acidic range, 0.1% formic acid in water and acetonitrile (gradient 10% to 95% acetonitrile)
Experimental: Measurement of Log P values was performed according to EEC directive 79/831 Annex V.A8 by HPLC (High Performance Liquid Chromatography) on reversed phase columns with the following method: ^[a] Log P value is determined by measurement of LC-UV, in an acidic range, with 0.1% formic acid in water and acetonitrile as eluent (linear gradient from 10% acetonitrile to 95% acetonitrile).
Calibration was done with straight-chain alkan2-ones (with 3 to 16 carbon atoms) with known Log P values (measurement of Log P values using retention times with linear interpolation between successive alka-nones). Lambda-max-values were determined using UV-spectra from 200 nm to 400 nm and the peak values of the chromatographic signals.
Calibration was done with straight-chain alkan2-ones (with 3 to 16 carbon atoms) with known Log P values (measurement of Log P values using retention times with linear interpolation between successive alkanones). Lambda-max-values were determined using UV-spectra from 200 nm to 400 nm and the peak values of the chromatographic signals.

[2] = system: Botrytis cinerea; test: In vivo preventive test on Botrytis cinerea (grey mould); conditions: gherkin plants
Experimental: (§1) The active ingredients are made soluble and homogenized in a mixture of Dimethyl sulfoxide/Acetone//Tween® 80 and then diluted in water to the desired concentration.
(§2) The young plants of gherkin are treated by spraying the active ingredient prepared as described above. Control plants are treated only with an aqueous solution of Acetone/Dimethyl sulfoxide/Tween® 80.
After 24 hours, the plants are contaminated by spraying the leaves with an aqueous suspension of Botrytis cinerea spores. The contaminated gherkin plants are incubated for 4 to 5 days at 17° C. and at 90% relative humidity.
The test is evaluated 4 to 5 days after the inoculation. 0% means an efficacy which corresponds to that of the control plants while an efficacy of 100% means that no disease is observed.

[3] = system: Pyrenophora teres; test: In vivo preventive test on Pyrenophora teres (net blotch on barley); conditions: barley plants; for Efficacy: comparison table
Experimental: as §1
The young plants of barley are treated by spraying the active ingredient prepared as described above. Control plants are treated only with an aqueous solution of Acetone/Dimethyl sulfoxide/Tween® 80.
After 24 hours, the plants are contaminated by spraying the leaves with an aqueous suspension of Pyreoophora teres spores. The contaminated barley plants are incubated for 48 hours at 20° C. and at 100% relative humidity and then for 12 days at 20° C. and at 70-80% relative humidity.
The test is evaluated 14 days after the inoculation. 0% means an efficacy which corresponds to that of the control plants while an efficacy of 100% means that no disease is observed.

[4] = system: Septoria tritici; test: In vivo preventive test on Septoria tritici (leaf spot on wheat), DMSO/acetone/Tween 80; conditions: wheat plants; for Efficacy: dose 10 ppm, comparison table; for protection (in words): dose of 10 ppm of active ingredient
Experimental: as §1
The young plants of wheat are treated by spraying the active ingredient prepared as described above. Control plants are treated only with an aqueous solution of Acetone/Dimethyl sulfoxide/Tween® 80.
After 24 hours, the plants are contaminated by spraying the leaves with an aqueous suspension of Septoria tritici spores. The contaminated wheat plants are incubated for 72 hours at 18° C. and at 100% relative humidity and then for 21 days at 20° C. and at 90% relative humidity.
The test is evaluated 24 days after the inoculation. 0% means an efficacy which corresponds to that of the control plants while an efficacy of 100% means that no disease is observed.

[5] = system: Sphaerotheca fuliginea; test: In vivo preventive test on Sphaerotheca fuliginea (powdery mildew on cucurbits); conditions: gherkin plants; for Efficacy: dose 10 ppm, comparison table; for protection (in words): dose of 10 ppm of active ingredient
Experimental: as §1, §2
After 24 hours, the plants are contaminated by spraying the leaves with an aqueous suspension of Sphaerotheca fuliginea spores. The contaminated gherkin plants are incubated for 72 hours at 18° C. and at 100% relative humidity and then for 12 days at 20° C. and at 70-80% relative humidity.
The test is evaluated 15 days after the inoculation. 0% means an efficacy which corresponds to that of the control plants while an efficacy of 100% means that no disease is observed.

[6] = dose of 100 ppm of active ingredient
[7] = dose of 10 ppm of active ingredient

Structure (SMILES): CCCC1CC(C)(C)c2cccc(NC(=O)c3cccnc3C(F)F)c21 (single isomer, unassigned) [Example 7]
- Log P[a] [1]: 3.96^[a]

Structure (SMILES): CCCC1CC(C)(C)c2cccc(NC(=O)c3cccnc3C(F)F)c21 (racemic) [Example 5]
- Log P[a] [1]: 3.96^[a]

Structure (SMILES): CC(C)CC1CC(C)(C)c2cccc(N)c21 (racemic) [Example III-04]
- Log P[a] [1]: 4.18^[a]

Structure (SMILES): CCC1CC(C)(C)c2cccc(NC(=O)c3cccnc3C(F)F)c21 (stereo not drawn) [Example 2, 2-(difluoromethyl)-N-(3-ethyl-1,1-dimethyl-2,3-dihydro-1H-inden-4-yl)nicotinamide]
- chromatographic logP [1]: 3.62
- Efficacy ([2]; dose 100 ppm, comparison table): 93%
- protection (in words) [2, 6]: very good protection
- Efficacy ([3]; dose 10 ppm): 64%
- Efficacy ([3]; dose 100 ppm): 93%
- protection (in words) [3, 7]: moderate protection
- protection (in words) [3, 6]: very good protection
- Efficacy [4]: 97%
- protection (in words) [4]: very good protection
- Efficacy [5]: 100%
- protection (in words) [5]: total protection

Structure (SMILES): CCC1CC(C)(C)c2cccc(NC(=O)c3cccnc3Cl)c21 (stereo not drawn) [2-chloro-N-(3-ethyl-1,1-dimethyl-2,3-dihydro-1H-inden-4-yl)nicotinamide, reference compound]
- Efficacy ([3]; dose 10 ppm): 0%
- Efficacy ([3]; dose 100 ppm): 71%
- protection (in words) [3, 7]: no protection at all
- protection (in words) [3, 6]: moderate protection
- Efficacy [4]: 50%
- protection (in words) [4]: moderate protection
- Efficacy [5]: 44%
- protection (in words) [5]: weak protection

Structure (SMILES): CC(C)C1CC(C)(C)c2cccc(NC(=O)c3cccnc3C(F)F)c21 (racemic) [Example 1]
- Log P[a] [1]: 3.87^[a]

Structure (SMILES): CC(C)CC1CC(C)(C)c2cccc(NC(=O)c3cccnc3C(F)F)c21 (racemic) [Example 10]
- Log P[a] [1]: 4.27^[a]

Structure (SMILES): CC(C)C1CC(C)(C)c2cccc(N)c21 (racemic) [Example III-01]
- Log P[a] [1]: 3.37^[a]

Structure (SMILES): CCC1CC(C)(C)c2cccc(NC(=O)c3cccnc3C(F)F)c21 (single isomer, unassigned) [Example 4]
- Log P[a] [1]: 3.62^[a]

Structure (SMILES): CCCC1CC(C)(C)c2cccc(NC(=O)c3c(F)ccnc3C(F)F)c21 (racemic) [Example 15]
- Log P[a] [1]: 4.21^[a]

Structure (SMILES): CCC1CC(C)(C)c2cccc(N)c21 (stereo not drawn) [Example III-02, 3-ethyl-1,1-dimethylindan-4-amine]
- chromatographic logP [1]: 2.86

Structure (SMILES): CC(C)CC1CC(C)(C)c2cccc(NC(=O)c3c(F)ccnc3C(F)F)c21 (racemic) [Example 13]
- Log P[a] [1]: 4.54^[a]

Structure (SMILES): CC(C)CC1CC(C)(C)c2cccc(NC(=O)c3cccnc3C(F)F)c21 (single isomer, unassigned) [Example 12]
- Log P[a] [1]: 4.27^[a]

Structure (SMILES): CCCC1CC(C)(C)c2cccc(NC(=O)c3cccnc3C(F)F)c21 (single isomer, unassigned) [Example 6]
- Log P[a] [1]: 3.96^[a]

Structure (SMILES): CC(C)CC1CC(C)(C)c2cccc(NC(=O)c3cccnc3C(F)F)c21 (single isomer, unassigned) [Example 11]
- Log P[a] [1]: 4.27^[a]

Structure (SMILES): CCC1CC(C)(C)c2cccc(NC(=O)c3cccnc3C(F)F)c21 (single isomer, unassigned) [Example 3]
- Log P[a] [1]: 3.62^[a]

Structure (SMILES): CCC1CC(C)(C)c2cccc(NC(=O)c3c(F)ccnc3C(F)F)c21 (racemic) [Example 14]
- Log P[a] [1]: 3.87^[a]

Structure (SMILES): CCCC1CC(C)(C)c2cccc(NC(=O)c3ccc(Cl)nc3C(F)F)c21 (racemic) [Example 8]
- Log P[a] [1]: 4.65^[a]

Structure (SMILES): CCCC1CC(C)(C)c2cccc(N)c21 (racemic) [Example III-03]
- Log P[a] [1]: 3.60^[a]
